ChEMBL document CHEMBL3621178, “Antidiabetic effect of novel benzenesulfonylureas as PPAR-γ agonists and their anticancer effect” (Bioorg Med Chem Lett, 2015)
Active and inactive are the calls of the source. The rule behind the calls is not given here.

How the values were obtained:
[1] = tested on: UACC-257; experiment: Growth inhibition of human UACC257 cells assessed as cell viability at 10 uM incubated for 48 hrs by sulforhodamine B assay; assay type: functional; conditions: UACC-257, 48 h, read-out: Activity
[2] = Growth inhibition of human LOXIMVI cells assessed as cell viability at 10 uM incubated for 48 hrs by sulforhodamine B assay; assay type: functional; conditions: LOX IMVI, read-out: Activity
[3] = tested on: ACHN; experiment: Growth inhibition of human ACHN cells assessed as cell viability at 10 uM incubated for 48 hrs by sulforhodamine B assay; assay type: functional; conditions: read-out: Activity
[4] = tested on: Rattus norvegicus; experiment: Toxicity in STZ-induced diabetic Wistar rat model assessed as increase in body weight at 30 mg/kg, po repeated for 15 days […]; assay type: organism-based; conditions: in vivo, 360 h
[5] = tested on: SNB-19; experiment: Growth inhibition of human SNB19 cells assessed as cell viability at 10 uM incubated for 48 hrs by sulforhodamine B assay; assay type: functional; conditions: SNB-19, 48 h, read-out: Activity
[6] = tested on: MDA-MB-468; experiment: Growth inhibition of human MDA-MB-468 cells assessed as cell viability at 10 uM incubated for 48 hrs by sulforhodamine B assay; assay type: functional; conditions: MDA-MB-468, 48 h, read-out: Activity
[7] = tested on: DU-145; experiment: Growth inhibition of human DU145 cells assessed as cell viability at 10 uM incubated for 48 hrs by sulforhodamine B assay; assay type: functional; conditions: DU-145, 48 h, read-out: Activity
[8] = Growth inhibition of human COLO205 cells assessed as cell viability at 10 uM incubated for 48 hrs by sulforhodamine B assay; assay type: functional; conditions: COLO 205, 48 h, read-out: Activity
[9] = tested on: HOP-62; experiment: Growth inhibition of human HOP62 cells assessed as cell viability at 10 uM incubated for 48 hrs by sulforhodamine B assay; assay type: functional; conditions: HOP-62, 48 h, read-out: Activity
[10] = tested on: A498; experiment: Growth inhibition of human A498 cells assessed as cell viability at 10 uM incubated for 48 hrs by sulforhodamine B assay; assay type: functional; conditions: A498, 48 h, read-out: Activity
[11] = tested on: IGROV-1; experiment: Growth inhibition of human IGROV1 cells assessed as cell viability at 10 uM incubated for 48 hrs by sulforhodamine B assay; assay type: functional; conditions: IGROV-1, 48 h, read-out: Activity
[12] = tested on: OVCAR-8; experiment: Growth inhibition of human OVCAR8 cells assessed as cell viability at 10 uM incubated for 48 hrs by sulforhodamine B assay; assay type: functional; conditions: OVCAR-8, 48 h, read-out: Activity
[13] = tested on: UACC-62; experiment: Growth inhibition of human UACC62 cells assessed as cell viability at 10 uM incubated for 48 hrs by sulforhodamine B assay; assay type: functional; conditions: UACC-62, 48 h, read-out: Activity
[14] = tested on: Rattus norvegicus; experiment: Antidiabetic activity in Wistar rat assessed as reduction in blood glucose level at 30 mg/kg, po dosed 30 mins before glucose challenge and measured 30 and 60 mins post glucose challenge by OGTT method; assay type: functional, organism-based
[15] = tested on: 786-0; experiment: Growth inhibition of human 786-0 cells assessed as cell viability at 10 uM incubated for 48 hrs by sulforhodamine B assay; assay type: functional; conditions: 786-0, 48 h, read-out: Activity
[16] = target: T1, Peroxisome proliferator-activated receptor gamma (Homo sapiens) (UniProt P37231); experiment: Agonist activity at PPARgamma (unknown origin) expressed in HEK293 cells assessed as receptor transactivation at 10 uM incubated for 24 hrs by luciferase reporter gene assay; assay type: cell-based
T1 sequence (whole entry): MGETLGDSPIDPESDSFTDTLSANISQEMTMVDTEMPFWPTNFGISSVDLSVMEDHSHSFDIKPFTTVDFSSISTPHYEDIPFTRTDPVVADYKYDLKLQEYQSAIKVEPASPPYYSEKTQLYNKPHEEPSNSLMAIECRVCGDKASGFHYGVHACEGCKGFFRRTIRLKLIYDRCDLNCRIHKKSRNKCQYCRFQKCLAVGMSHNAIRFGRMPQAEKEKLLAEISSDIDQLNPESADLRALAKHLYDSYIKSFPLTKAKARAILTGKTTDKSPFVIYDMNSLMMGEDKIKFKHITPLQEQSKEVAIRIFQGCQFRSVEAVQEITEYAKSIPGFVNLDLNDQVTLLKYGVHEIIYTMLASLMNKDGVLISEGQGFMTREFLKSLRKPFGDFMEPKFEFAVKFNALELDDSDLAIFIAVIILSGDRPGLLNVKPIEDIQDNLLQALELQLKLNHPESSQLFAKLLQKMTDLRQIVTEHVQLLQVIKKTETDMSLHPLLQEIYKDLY

[17] = tested on: SK-MEL-28; experiment: Growth inhibition of human SK-MEL-28 cells assessed as cell viability at 10 uM incubated for 48 hrs by sulforhodamine B assay; assay type: functional; conditions: SK-MEL-28, 48 h, read-out: Activity
[18] = tested on: MDA-MB-435; experiment: Growth inhibition of human MDA-MB-435 cells assessed as cell viability at 10 uM incubated for 48 hrs by sulforhodamine B assay; assay type: functional; conditions: MDA-MB-435, 48 h, read-out: Activity
[19] = tested on: OVCAR-5; experiment: Growth inhibition of human OVCAR5 cells assessed as cell viability at 10 uM incubated for 48 hrs by sulforhodamine B assay; assay type: functional; conditions: OVCAR-5, 48 h, read-out: Activity
[20] = tested on: Rattus norvegicus; experiment: Antidiabetic activity in STZ-induced diabetic Wistar rat model assessed as reduction in blood glucose level at 30 mg/kg, po repeated for 15 days by GOD-POD method; assay type: functional, organism-based
[21] = tested on: KM12; experiment: Growth inhibition of human KM12 cells assessed as cell viability at 10 uM incubated for 48 hrs by sulforhodamine B assay; assay type: functional; conditions: KM12, 48 h, read-out: Activity
[22] = Growth inhibition of human Hs 578T cells assessed as cell viability at 10 uM incubated for 48 hrs by sulforhodamine B assay; assay type: functional; conditions: read-out: Activity
[23] = tested on: SK-MEL-2; experiment: Growth inhibition of human SK-MEL-2 cells assessed as cell viability at 10 uM incubated for 48 hrs by sulforhodamine B assay; assay type: functional; conditions: SK-MEL-2, 48 h, read-out: Activity
[24] = tested on: TK-10; experiment: Growth inhibition of human TK10 cells assessed as cell viability at 10 uM incubated for 48 hrs by sulforhodamine B assay; assay type: functional; conditions: TK-10, 48 h, read-out: Activity
[25] = tested on: NCI-H522; experiment: Growth inhibition of human NCI-H522 cells assessed as cell viability at 10 uM incubated for 48 hrs by sulforhodamine B assay; assay type: functional; conditions: NCI-H522, 48 h, read-out: Activity

Compound: COc1ccc(C2CC(c3cc4ccccc4oc3=O)=NN2c2ccc(S(=O)(=O)NC(=O)Nc3ccccc3C)cc2)cc1 (stereo not given)
- viability at 10 µM [1]: 113%
- viability at 10 µM [2]: 92.6%
- viability at 10 µM [3]: 89.7%
- Activity [4]: Non-toxic
- viability at 10 µM [5]: 102%
- viability at 10 µM [6]: 100%
- viability at 10 µM [7]: 111%
- viability at 10 µM [8]: 119%
- viability at 10 µM [9]: 87.3%
- viability at 10 µM [10]: 94.7%
- viability at 10 µM [11]: 109%
- viability at 10 µM [12]: 99.9%
- viability at 10 µM [13]: 89.2%
- Activity [14]: Active
- viability at 10 µM [15]: 94.2%
- Activity [16]: Active
- viability at 10 µM [17]: 102%
- viability at 10 µM [18]: 102%
- viability at 10 µM [19]: 83.1%
- Activity [20]: Active
- viability at 10 µM [21]: 102%
- viability at 10 µM [22]: 84.8%

Compound: COc1ccc(C2CC(c3ccco3)=NN2c2ccc(S(=O)(=O)NC(=O)NCc3ccccc3)cc2)cc1 (stereo not given)
- viability at 10 µM [1]: 97.9%
- viability at 10 µM [23]: 90.7%
- viability at 10 µM [2]: 102%
- viability at 10 µM [3]: 101%
- Activity [4]: Non-toxic
- viability at 10 µM [5]: 108%
- viability at 10 µM [6]: 101%
- viability at 10 µM [7]: 108%
- viability at 10 µM [8]: 123%
- viability at 10 µM [9]: 103%
- viability at 10 µM [10]: 96.2%
- viability at 10 µM [11]: 113%
- viability at 10 µM [12]: 97.9%
- viability at 10 µM [13]: 105%
- Activity [14]: Active
- viability at 10 µM [15]: 98.6%
- Activity [16]: Active
- viability at 10 µM [17]: 101%
- viability at 10 µM [18]: 103%
- viability at 10 µM [24]: 93%
- viability at 10 µM [19]: 102%
- Activity [20]: Active
- viability at 10 µM [21]: 105%
- viability at 10 µM [22]: 105%
- viability at 10 µM [25]: 86.3%

Compound: O=C(NCc1ccccc1)NS(=O)(=O)c1ccc(N2N=C(c3cc4ccccc4oc3=O)CC2c2cccs2)cc1 (stereo not given)
- viability at 10 µM [1]: 104%
- viability at 10 µM [23]: 96%
- viability at 10 µM [2]: 97.7%
- viability at 10 µM [3]: 102%
- viability at 10 µM [5]: 108%
- viability at 10 µM [6]: 110%
- viability at 10 µM [7]: 110%
- viability at 10 µM [8]: 119%
- viability at 10 µM [9]: 93.6%
- viability at 10 µM [10]: 107%
- viability at 10 µM [11]: 117%
- viability at 10 µM [12]: 103%
- viability at 10 µM [13]: 102%
- viability at 10 µM [15]: 95.3%
- viability at 10 µM [17]: 97.4%
- viability at 10 µM [18]: 103%
- viability at 10 µM [24]: 108%
- viability at 10 µM [19]: 111%
- viability at 10 µM [21]: 105%
- viability at 10 µM [22]: 99.6%
- viability at 10 µM [25]: 96.3%

Compound: CN(C)c1ccc(C2CC(c3cc4ccccc4oc3=O)=NN2c2ccc(S(=O)(=O)NC(=O)NCc3ccccc3)cc2)cc1 (stereo not given)
- viability at 10 µM [1]: 64.9%
- viability at 10 µM [2]: 79.8%
- viability at 10 µM [3]: 58.2%
- viability at 10 µM [5]: 82%
- viability at 10 µM [6]: 68.2%
- viability at 10 µM [7]: 84.9%
- viability at 10 µM [8]: 78.2%
- viability at 10 µM [9]: 57.8%
- viability at 10 µM [10]: 51.2%
- viability at 10 µM [11]: 97.8%
- viability at 10 µM [12]: 71.7%
- viability at 10 µM [13]: 37.6%
- Activity [14]: Active
- viability at 10 µM [15]: 68.4%
- viability at 10 µM [17]: 57.4%
- viability at 10 µM [18]: 65.5%
- viability at 10 µM [19]: 74.6%
- viability at 10 µM [21]: 72.9%
- viability at 10 µM [22]: 67.1%

Compound: COc1ccc(NC(=O)NS(=O)(=O)c2ccc(N3N=C(c4cc5ccccc5oc4=O)CC3c3ccc(N(C)C)cc3)cc2)cc1 (stereo not given)
- viability at 10 µM [1]: 96.3%
- viability at 10 µM [2]: 95.6%
- viability at 10 µM [3]: 89.7%
- viability at 10 µM [5]: 103%
- viability at 10 µM [6]: 104%
- viability at 10 µM [7]: 111%
- viability at 10 µM [8]: 115%
- viability at 10 µM [9]: 71.8%
- viability at 10 µM [10]: 80.6%
- viability at 10 µM [11]: 109%
- viability at 10 µM [12]: 94.9%
- viability at 10 µM [13]: 88.6%
- viability at 10 µM [15]: 96.9%
- viability at 10 µM [17]: 101%
- viability at 10 µM [18]: 102%
- viability at 10 µM [19]: 102%
- viability at 10 µM [21]: 101%
- viability at 10 µM [22]: 84.9%
